Data from ChEMBL document CHEMBL1909046, “DrugMatrix in vitro pharmacology data”.

Legend:
[1] = target: T1, Glucocorticoid receptor (Homo sapiens, UniProt P04150); conditions: hela s3; further: in other assays of this panel Not Active means under 50% inhibition at 10 µM
T1 sequence (P04150 whole entry): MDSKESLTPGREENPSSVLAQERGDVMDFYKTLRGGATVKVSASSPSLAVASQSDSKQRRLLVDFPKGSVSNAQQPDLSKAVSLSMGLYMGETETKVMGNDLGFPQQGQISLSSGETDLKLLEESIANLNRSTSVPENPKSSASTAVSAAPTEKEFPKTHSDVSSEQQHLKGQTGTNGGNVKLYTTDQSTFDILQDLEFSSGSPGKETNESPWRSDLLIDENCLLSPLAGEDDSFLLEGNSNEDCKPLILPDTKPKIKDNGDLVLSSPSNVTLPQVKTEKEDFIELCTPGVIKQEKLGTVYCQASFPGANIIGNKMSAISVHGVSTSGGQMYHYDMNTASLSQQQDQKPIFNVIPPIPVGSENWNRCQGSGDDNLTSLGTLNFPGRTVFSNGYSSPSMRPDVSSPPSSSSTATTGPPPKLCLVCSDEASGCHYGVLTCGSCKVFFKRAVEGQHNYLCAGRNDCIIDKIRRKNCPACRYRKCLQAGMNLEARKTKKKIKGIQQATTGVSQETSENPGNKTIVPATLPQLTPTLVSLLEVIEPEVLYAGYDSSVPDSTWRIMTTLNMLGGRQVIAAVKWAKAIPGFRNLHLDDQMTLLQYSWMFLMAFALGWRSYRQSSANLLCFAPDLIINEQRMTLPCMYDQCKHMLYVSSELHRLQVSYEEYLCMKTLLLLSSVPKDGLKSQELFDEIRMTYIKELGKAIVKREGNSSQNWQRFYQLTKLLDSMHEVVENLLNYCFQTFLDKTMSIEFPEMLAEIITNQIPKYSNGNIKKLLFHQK

[2] = DRUGMATRIX: Nicotinic Acetylcholine radioligand binding (ligand: [125I] Epibatidine); assay type: cell membranes, Membrane; conditions: imr-32; Not Active = under 50% inhibition at 10 µM
[3] = DRUGMATRIX: Platelet-Derived Growth Factor (PDGF) radioligand binding (ligand: [125I] PDGF); assay type: cell-based; conditions: nih3t3; Not Active = under 50% inhibition at 10 µM
[4] = DRUGMATRIX: Tumor Necrosis Factor (TNF), Non-Selective radioligand binding (ligand: [125I] TNF-alpha); assay type: cell membranes, Membrane; conditions: u-937; Not Active = under 50% inhibition at 10 µM
[5] = target: T2, Cathepsin G (Homo sapiens, UniProt P08311); assay type: tissue-based; conditions: neutrophil;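 further: inhibition of Cathepsin G enzyme activity, tested on an AMC-conjugated peptide substrate; in other assays of this panel Not Active means under 50% inhibition at 10 µM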
T2 sequence (P08311 whole entry): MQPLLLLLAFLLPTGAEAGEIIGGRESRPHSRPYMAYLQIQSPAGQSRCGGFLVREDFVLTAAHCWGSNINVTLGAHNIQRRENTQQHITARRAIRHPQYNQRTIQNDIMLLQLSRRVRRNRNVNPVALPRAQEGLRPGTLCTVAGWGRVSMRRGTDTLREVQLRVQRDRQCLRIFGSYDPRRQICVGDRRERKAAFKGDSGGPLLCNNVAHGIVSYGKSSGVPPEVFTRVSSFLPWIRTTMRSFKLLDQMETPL

[6] = target: T3, Alpha-1D adrenergic receptor (Homo sapiens, UniProt P25100); assay type: cell membranes, HEK293, Membrane; conditions: for Ki: read-out: Ki; on all read-outs here: in other assays of this panel Not Active means under 50% inhibition at 10 µM
T3 sequence (P25100 whole entry): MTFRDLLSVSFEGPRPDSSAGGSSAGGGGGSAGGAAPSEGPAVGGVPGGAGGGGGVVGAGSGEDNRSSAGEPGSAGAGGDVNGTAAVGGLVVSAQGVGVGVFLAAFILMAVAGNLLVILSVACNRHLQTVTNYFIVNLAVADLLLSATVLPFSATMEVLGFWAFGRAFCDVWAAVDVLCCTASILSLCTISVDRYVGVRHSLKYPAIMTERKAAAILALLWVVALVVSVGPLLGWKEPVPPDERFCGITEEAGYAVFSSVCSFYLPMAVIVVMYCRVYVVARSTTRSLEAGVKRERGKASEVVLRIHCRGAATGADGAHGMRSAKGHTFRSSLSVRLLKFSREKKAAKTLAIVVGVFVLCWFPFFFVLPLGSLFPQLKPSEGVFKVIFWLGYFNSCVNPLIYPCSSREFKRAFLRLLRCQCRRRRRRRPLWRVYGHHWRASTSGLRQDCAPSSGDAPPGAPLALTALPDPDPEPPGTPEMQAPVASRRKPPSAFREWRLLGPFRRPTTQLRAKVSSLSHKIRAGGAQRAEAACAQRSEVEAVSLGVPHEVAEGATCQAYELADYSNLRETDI

[7] = target: Mitogen-activated protein kinase 14 (Homo sapiens, UniProt Q16539); parameters: species or system Escherichia coli;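 further: inhibition of p38alpha enzyme activity in a biochemical kinase assay, with myelin basic protein serving as substrate; in other assays of this panel Not Active means under 50% inhibition at 10 µM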
Sequence of Mitogen-activated protein kinase 14 (Q16539 whole entry): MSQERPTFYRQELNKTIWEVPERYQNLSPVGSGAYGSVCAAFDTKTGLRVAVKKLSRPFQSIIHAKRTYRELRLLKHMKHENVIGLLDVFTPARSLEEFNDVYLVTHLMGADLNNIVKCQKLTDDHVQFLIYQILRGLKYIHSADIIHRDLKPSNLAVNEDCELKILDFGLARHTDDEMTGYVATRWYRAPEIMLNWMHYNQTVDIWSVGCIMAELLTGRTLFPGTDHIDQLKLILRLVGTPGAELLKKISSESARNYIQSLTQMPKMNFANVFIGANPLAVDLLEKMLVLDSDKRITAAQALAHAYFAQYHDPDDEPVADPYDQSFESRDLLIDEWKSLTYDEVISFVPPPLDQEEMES

[8] = target: T4, B2 bradykinin receptor (Homo sapiens, UniProt P30411); assay type: cell membranes, Membrane; conditions: chem-1; further: in other assays of this panel Not Active means under 50% inhibition at 10 µM
T4 sequence (P30411 whole entry): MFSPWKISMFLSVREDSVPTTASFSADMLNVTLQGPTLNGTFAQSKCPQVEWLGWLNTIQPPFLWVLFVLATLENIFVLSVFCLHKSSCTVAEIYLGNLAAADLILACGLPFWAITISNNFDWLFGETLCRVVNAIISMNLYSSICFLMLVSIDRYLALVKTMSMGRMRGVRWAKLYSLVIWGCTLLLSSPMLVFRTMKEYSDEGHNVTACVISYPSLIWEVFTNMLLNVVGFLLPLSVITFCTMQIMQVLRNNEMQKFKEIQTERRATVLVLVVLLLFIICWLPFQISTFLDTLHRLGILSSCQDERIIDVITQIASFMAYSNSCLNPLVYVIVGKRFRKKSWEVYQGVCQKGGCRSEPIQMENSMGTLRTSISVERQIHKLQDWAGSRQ

Cn1c(=O)c2c(ncn2C)n(C)c1=O [CAFFEINE]
Not Active: IC50 [1] | IC50 [2] | Ki [2] | IC50 [3] | Ki [3] | IC50 [4] | Ki [4] | IC50 [5] | IC50 ([6]; hek293) | IC50 [7] | IC50 [8]

CO/N=C(\C(=O)N[C@@H]1C(=O)N2C(C(=O)O)=C(COC(C)=O)CS[C@H]12)c1csc(N)n1 [CEFOTAXIME]
Not Active: IC50 [1] | IC50 [2] | Ki [2] | IC50 [3] | Ki [3] | IC50 [4] | Ki [4] | IC50 [5] | IC50 ([6]; hek293) | IC50 [7] | IC50 [8]

CNC1=Nc2ccc(Cl)cc2C(c2ccccc2)=[N+]([O-])C1 [CHLORDIAZEPOXIDE]
Not Active: IC50 [1] | IC50 [2] | Ki [2] | IC50 [3] | Ki [3] | IC50 [4] | Ki [4] | IC50 [5] | IC50 ([6]; hek293) | IC50 [7] | IC50 [8]

Cc1cc(O)cc(C)c1Cl [CHLOROXYLENOL]
Not Active: IC50 [1] | IC50 [2] | Ki [2] | IC50 [3] | Ki [3] | IC50 [4] | Ki [4] | IC50 [5] | IC50 ([6]; hek293) | IC50 [7] | IC50 [8]

CCCNC(=O)NS(=O)(=O)c1ccc(Cl)cc1 [CHLORPROPAMIDE]
Not Active: IC50 [1] | IC50 [2] | Ki [2] | IC50 [3] | Ki [3] | IC50 [4] | Ki [4] | IC50 [5] | IC50 ([6]; hek293) | IC50 [7] | IC50 [8]

NS(=O)(=O)c1cc(C2(O)NC(=O)c3ccccc32)ccc1Cl (stereo not given) [CHLORTHALIDONE]
Not Active: IC50 [1] | IC50 [2] | Ki [2] | IC50 [3] | Ki [3] | IC50 [4] | Ki [4] | IC50 [5] | IC50 ([6]; hek293) | IC50 [7] | IC50 [8]

O=C(O)CC(O)(CC(=O)O)C(=O)O [CITRIC ACID]
Not Active: IC50 [1] | IC50 [2] | Ki [2] | IC50 [3] | Ki [3] | IC50 [4] | Ki [4] | IC50 [5] | IC50 ([6]; hek293) | IC50 [7] | IC50 [8]

CN1CCN(C(c2ccccc2)c2ccccc2)CC1 [CYCLIZINE]
1.21 µM: IC50 ([6]; read-out: IC50)
0.597 µM: Ki [6]
Not Active: IC50 [1] | IC50 [2] | Ki [2] | IC50 [3] | Ki [3] | IC50 [4] | Ki [4] | IC50 [5] | IC50 [7] | IC50 [8]

CN1C[C@@H]2C[C@H]1CN2c1cc2c(cc1F)c(=O)c(C(=O)O)cn2C1CC1 [DANOFLOXACIN]
Not Active: IC50 [1] | IC50 [2] | Ki [2] | IC50 [3] | Ki [3] | IC50 [4] | Ki [4] | IC50 [5] | IC50 ([6]; hek293) | IC50 [7] | IC50 [8]

COc1cccc2c1C(=O)c1c(O)c3c(c(O)c1C2=O)C[C@@](O)(C(C)=O)C[C@@H]3O[C@H]1C[C@H](N)[C@H](O)[C@H](C)O1 [DAUNORUBICIN]
Not Active: IC50 [1] | IC50 [2] | Ki [2] | IC50 [3] | Ki [3] | IC50 [4] | Ki [4] | IC50 [5] | IC50 ([6]; hek293) | IC50 [7] | IC50 [8]

O=C(O)c1cc(-c2ccc(F)cc2F)ccc1O [DIFLUNISAL]
Not Active: IC50 [1] | IC50 [2] | Ki [2] | IC50 [3] | Ki [3] | IC50 [4] | Ki [4] | IC50 [5] | IC50 ([6]; hek293) | IC50 [7] | IC50 [8]

C[S+](C)[O-] [DIMETHYL SULFOXIDE]
Not Active: IC50 [1] | IC50 [2] | Ki [2] | IC50 [3] | Ki [3] | IC50 [4] | Ki [4] | IC50 [5] | IC50 ([6]; hek293) | IC50 [7] | IC50 [8]

CC1=NN(c2ccccc2)C(=O)C1 [EDARAVONE]
Not Active: IC50 [1] | IC50 [2] | Ki [2] | IC50 [3] | Ki [3] | IC50 [4] | Ki [4] | IC50 [5] | IC50 ([6]; hek293) | IC50 [7] | IC50 [8]

CC(C)C[C@H]1C(=O)N2CCC[C@H]2[C@]2(O)O[C@](NC(=O)[C@@H]3C=C4c5cccc6[nH]cc(c56)C[C@H]4N(C)C3)(C(C)C)C(=O)N12 [ERGOCRYPTINE]
Not Active: IC50 [1] | IC50 [2] | Ki [2] | IC50 [3] | Ki [3] | IC50 [4] | Ki [4] | IC50 [5] | IC50 [7] | IC50 [8]
0.024 µM: Ki [6]
0.048 µM: IC50 ([6]; read-out: IC50)

CC(C)(C(=O)O)c1ccc(C(O)CCCN2CCC(C(O)(c3ccccc3)c3ccccc3)CC2)cc1 (stereo not given) [FEXOFENADINE]
Not Active: IC50 [1] | IC50 [2] | Ki [2] | IC50 [3] | Ki [3] | IC50 [4] | Ki [4] | IC50 [5] | IC50 ([6]; hek293) | IC50 [7] | IC50 [8]

CN1CCN(c2c(F)cc3c(=O)c(C(=O)O)cn(CCF)c3c2F)CC1 [FLEROXACIN]
Not Active: IC50 [1] | IC50 [2] | Ki [2] | IC50 [3] | Ki [3] | IC50 [4] | Ki [4] | IC50 [5] | IC50 ([6]; hek293) | IC50 [7] | IC50 [8]

O=c1[nH]c(=O)n([C@H]2C[C@H](O)[C@@H](CO)O2)cc1F [FLOXURIDINE]
Not Active: IC50 [1] | IC50 [2] | Ki [2] | IC50 [3] | Ki [3] | IC50 [4] | Ki [4] | IC50 [5] | IC50 ([6]; hek293) | IC50 [7] | IC50 [8]

COC(=O)Nc1nc2cc(C(=O)c3ccc(F)cc3)ccc2[nH]1 [FLUBENDAZOLE]
Not Active: IC50 [1] | IC50 [2] | Ki [2] | IC50 [3] | Ki [3] | IC50 [4] | Ki [4] | IC50 [5] | IC50 ([6]; hek293) | IC50 [7] | IC50 [8]
